Data taken from patent US20240140979A1, “HETEROCYCLIC INHIBITORS OF CD73 FOR TREATMENT OF DISEASE” (Teon Therapeutics, Inc., priority 2022, published 2024).

Biological target: human CD73 enzyme (Homo sapiens (Human), UniProt P21589)
Experiment: Biochemical CD73 Assay
Conditions: recombinant human CD73 2 nM, AMP 40 μM, Malachite Green free phosphate detection
Protocol: Activity of recombinant CD73 was measured by quantification of free phosphate using the Malachite Green detection system (R&D Systems #DY996). Test compounds were solubilized in DMSO and dispensed into 384-well polystyrene plates in a 8-point 3× titration in duplicates. Then, 10 μL of 4 nM human CD73 enzyme (Novoprotein #C446) in phosphate- free assay buffer (10 mM HEPES, pH 7.4, 125 mM NaCl, 1 mM KCl, 10 mM glucose, 2 mM MgCl2) was added to the plates. The compound and enzyme were incubated for 15 min at RT. Then, 10 μL of 80 μM AMP (Sigma Aldrich #A1752) in the assay buffer was added and the reaction mixture was incubated for […] at 37° C. The final concentrations of CD73 and AMP in the reaction were 2 nM and 40 μM, respectively. The reaction was stopped by adding 5 μL of Malachite Green reagent A and incubating for 10 mM at RT, followed by addition of 5 μL of Malachite Green reagent B and incubation for 20 mM at RT. Absorbance was then read at 620 nm with the Flexstation spectrophotometer (Molecular Devices). The IC50 values were determined using a four-parameter nonlinear regression curve fit.

Chain of human CD73 enzyme (P21589 27-574): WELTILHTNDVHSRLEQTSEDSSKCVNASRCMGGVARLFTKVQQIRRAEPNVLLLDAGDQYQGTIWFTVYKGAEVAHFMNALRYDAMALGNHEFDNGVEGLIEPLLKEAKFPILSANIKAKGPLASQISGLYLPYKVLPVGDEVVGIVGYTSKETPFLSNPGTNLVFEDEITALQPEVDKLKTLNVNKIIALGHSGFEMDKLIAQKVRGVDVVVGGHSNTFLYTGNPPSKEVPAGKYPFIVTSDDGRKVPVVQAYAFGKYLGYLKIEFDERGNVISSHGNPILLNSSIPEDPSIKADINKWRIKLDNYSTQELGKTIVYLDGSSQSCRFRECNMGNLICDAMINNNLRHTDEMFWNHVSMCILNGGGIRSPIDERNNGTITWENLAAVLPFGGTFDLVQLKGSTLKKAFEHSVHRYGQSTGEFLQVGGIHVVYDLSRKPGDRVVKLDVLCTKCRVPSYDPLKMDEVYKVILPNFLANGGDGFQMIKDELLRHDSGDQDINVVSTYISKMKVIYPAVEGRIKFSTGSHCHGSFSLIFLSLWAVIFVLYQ

IC50 [nM] | Compound
6.4 | COC[C@@](OC[C@H]1O[C@@H](n2ncc3c(NC4CCCC4)nc(Cl)nc32)[C@H](O)[C@@H]1O)(C(=O)NS(=O)(=O)N(C)C)P(=O)(O)O [Example 1, ((S)-2-(((2R,3S,4R,5R)-5-(6-Chloro-4-(cyclopentylamino)-1H-pyrazolo[3,4-d]pyrimidin-1-yl)-3,4-dihydroxytetrahydrofuran-2-yl)methoxy)-1-((N,N-dimethylsulfamoyl)amino)-3-methoxy-1-oxopropan-2-yl)phosphonic Acid]
114 | COC[C@](OC[C@H]1O[C@@H](n2ncc3c(NC4CCCC4)nc(Cl)nc32)[C@H](O)[C@@H]1O)(C(=O)NS(=O)(=O)N(C)C)P(=O)(O)O [Example 2, ((R)-2-(((2R,3S,4R,5R)-5-(6-chloro-4-(cyclopentylamino)-1H-pyrazolo[3,4-d]pyrimidin-1-yl)-3,4-dihydroxytetrahydrofuran-2-yl)methoxy)-1-((N,N-dimethylsulfamoyl)amino)-3-methoxy-1-oxourouan-2-yl)phosphonic Acid]
6 | COC[C@@](OC[C@H]1O[C@@H](n2ncc3c(NC4CCCC4)nc(Cl)nc32)[C@H](O)[C@@H]1O)(C(=O)NS(=O)(=O)N1CCCC1)P(=O)(O)O [Example 4]
2.3 | COC[C@@](OC[C@H]1O[C@@H](n2ncc3c(NC4CCCC4)nc(Cl)nc32)[C@H](O)[C@@H]1O)(C(=O)NS(=O)(=O)N1CCC1)P(=O)(O)O [Example 5, ((S)-1-(Azetidine-1-sulfonamido)-2-(((2R,3S,4R,5R)-5-(6-chloro-4-(cyclopentylamino)-1H-pyrazolo[3,4-d]pyrimidin-1-yl)-3,4-dihydroxytetrahydrofuran-2-yl)methoxy)-3-methoxy-1-oxopropan-2-yl)phosphonic Acid]

Further lines, the compound ahead of its results:

Compound | IC50 [nM]
COC[C@@](OC[C@H]1O[C@@H](n2ncc3c(NC4CCCC4)nc(Cl)nc32)[C@H](O)[C@@H]1O)(C(=O)NS(=O)(=O)N1CCCC1=O)P(=O)(O)O [Example 3] | 0.48
COC[C@](OC[C@H]1O[C@@H](n2ncc3c(NC4CCCC4)nc(Cl)nc32)[C@H](O)[C@@H]1O)(C(=O)NS(=O)(=O)N1CCC1)P(=O)(O)O [Example 6, ((R)-1-(Azetidine-1-sulfonamido)-2-(((2R,3S,4R,5R)-5-(6-chloro-4-(cyclopentylamino)-1H-pyrazolo[3,4-d]pyrimidin-1-yl)-3,4-dihydroxytetrahydrofuran-2-yl)methoxy)-3-methoxy-1-oxopropan-2-yl)phosphonic Acid] | 805
COC[C@@](OC[C@H]1O[C@@H](n2ncc3c(NC4CCCC4)nc(Cl)nc32)[C@H](O)[C@@H]1O)(C(=O)NS(=O)(=O)N1CC[C@@H](O)C1)P(=O)(O)O [Example 7] | 6.2
COC[C@@](OC[C@H]1O[C@@H](n2ncc3c(NC4CCCC4)nc(Cl)nc32)[C@H](O)[C@@H]1O)(C(=O)NS(=O)(=O)N1CC[C@H](O)C1)P(=O)(O)O [Example 9, ((S)-2-(((2R,3S,4R,5R)-5-(6-Chloro-4-(cyclopentylamino)-1H-pyrazolo[3,4-d]pyrimidin-1-yl)-3,4-dihydroxytetrahydrofuran-2-yl)methoxy)-1-(((S)-3-hydroxypyrrolidine)-1-sulfonamido)-3-methoxy-1-oxopropan-2-yl)phosphonic Acid] | 3
